Laboratory results from patent US7250397B2, “Antiarrhythmic peptides” (Zealand Pharma A/S, priority 2000, dated 2007).
[ ]: non-standard residue; d: D form. Hyp = O=C(O)[C@@H]1C[C@@H](O)CN1

Experiments:
human osteoblastic cells = experiment: Lucifer Yellow dye transfer in DDT-treated human osteoblast cells; format: cell-based; details: DDT 13 μM, 60 minutes; control 14.5 cells
Procedure: Human osteoblast cells: Cells were isolated from human bone marrow obtained by puncture of the posterior iliac spine of healthy volunteers (aged 20-36): 10-15 ml marrow material was collected in 15 ml PBS+Ca, Mg (Life Technologies, Cat.No. 14040) with 100 U/ml Heparin (Sigma, Cat.No. H-3149). The mononuclear fraction of the marrow was isolated on a Lymphoprep gradient (Nycomed Pharma, Cat.No. 1001967), by centrifugation at 2200 rpm for 30 min. After harvesting, the mononuclear fraction was washed once with culture medium and centrifuged at 1800 rpm for 10 min. Subsequently cells were counted and plated in culture medium at 8×10^6 cells/100 mm dish. hOB medium (all reagents obtained from Life Technologies): MEM w/o Phenol Red w/Glutamax (Cat.No. 041-93013) supplemented with 10% heat inactivated fetal calf serum (Cat.No. 10106) and 0.1% Penicillin/Streptomycin (Cat.No. 15140). Medium was changed the following day and the cells were cultured at 37° C. in 5%CO2 with medium change every 7 days. After 3-4 weeks of culture the cells had reached 70% confluence. The medium was then supplemented with 100 nM Dexamethasone (Sigma, Cat.No. D-4902) for 7 days. […]
The dye Lucifer Yellow (LY) was injected into one single human osteoblast in a monolayer. After 30 seconds, the number of cells containing dye was assessed. […]

[1] = In vitro stability test in rabbit plasma (heparin); format: in vitro ADME; details: 37° C., 0.1 mg/ml, mean n=3
Procedure: (§1) The stability of peptides is analysed in different plasma and serum types. The peptides are incubated at 37° C. in plasma and samples taken at approx. 9 regular intervals between t=0 and t=156 min are analysed by HPLC.
(§2) This is done by subsequent injections of the drug, plasma, and a co-injection with the drug and the plasma, followed by optimisation of the LC method parameters until a satisfactory separation is obtained. Three parallel experiments are performed for each plasma type:100 μl of peptide is mixed with 900 μl plasma at t=0 and incubated at 37° C. (drug-plasma mixture conc. 0.1 mg/ml). Samples of 100 μl of the drug-plasma mixture are removed at appropriate intervals and the degradation stopped by precipitation of the sample with 10 μl MeCN:TFA 50:50 v/v. A control plasma sample without the drug treated in the same manner is also taken. The plasma samples are centrifuged for 15 min. at 12,000 rpm (Eppendorf centrifuge) at ambient temperature. The resulting supernatant solution is transferred to 300 μl HP autosamler vials and analyzed by HPLC. […] Temp.: 40° C. • Solvent: MeCN/MQW/TFA (0.1%). Run time: 25 min. • Inj.vol.:15 μL. […]
(§3) The samples are analyzed in the following order: blank, the peptide at 0.1 mg/mL, the plasma without the peptide, the three parallel samples for t=0, the three parallel samples for t=5 min. the three parallel samples for t=10 min. etc. […]

[2] = In vitro stability test in human serum; format: in vitro ADME; details: 37° C., 0.1 mg/ml, mean n=3
Procedure: as §1, §2, §3

Molecule: Clc1ccc(C(c2ccc(Cl)cc2)C(Cl)(Cl)Cl)cc1 [DDT, 1,1-bis(p-chlorophenyl)-2,2,2-trichlorethane]
- median number of cells containing dye (human osteoblastic cells): 7 cells

Molecule: H-PYNGAG[Hyp]-NH2 [Compound 27]
- T1/2 [1]: 3.8 h
- T1/2 [2]: 3.1 h
